# Data taken from US20090270400A1 (priority 2004, published 2009).
# Where two headings read alike, the source gives them in different places.
# Tested on: carrageenin-induced hyperalgesia on a rat's paw
# Conditions: in vivo
smiles,measurement,setting,value
CN1CC[C@]23c4c5ccc(O)c4O[C@H]2[C@@H](O)C=C[C@H]3[C@H]1C5 [morphine],dose starting from which the pain threshold following a mechanical stimulus applied to the rats' paws is significantly reduced,ip,≥ 1 mg/kg
"N[C@@H](CSSC[C@H](N)C(=O)N1CCn2cc(-c3ccccc3)nc2[C@@H]1CC1CCCCC1)C(=O)N1CCn2cc(-c3ccccc3)nc2[C@@H]1CC1CCCCC1 [compound 1, (1R)-1-[({(2R)-2-amino-3-[(8S)-8-(cyclohexylmethyl)-2-phenyl-5,6-dihydroimidazo [1,2-α]pyrazin-7(8H)-yl]-3-oxopropyl}dithio)methyl]-2-[(8S)-8-(cyclohexylmethyl)-2-phenyl-5,6-dihydroimidazo [1,2-α]pyrazin-7(8H)-yl]-2-oxoethylamine]",dose starting from which the pain threshold following a mechanical stimulus applied to the rats' paws is significantly reduced,iv,≥ 1 mg/kg
